The values that follow are results of earlier work, collected in paper PMC8448162, “Single- and Multiple-Ascending-Dose Study of the Safety, Tolerability, and Pharmacokinetics of the Polymyxin Derivative SPR206” (Antimicrobial Agents and Chemotherapy, 2021).

In data set [1] the test system is kidney. To be noted: in vivo; cited from earlier work.
The test system of data set [2] is kidney. As to conditions: mouse model; cited from earlier work.
Data set [3] deals with bacterial burden in CFU/g. More on the design: method as in earlier work. As to conditions: 20 mg/kg, infection models in mice; cited from earlier work.

Turning to colistin, the “incidence of acute kidney injury” value in the data set on kidney [1] is “up to 60%”.

For the substance polymyxin B [reference compound], the “histopathological changes in the kidney” value in the data set on kidney [2] is listed as “all animals”. Moreover, in data set [3], the “change from baseline in Log10 (bacterial burden in CFU/g)” value was −2.8 Log10.
